Measured values as given in patent US20240174622A1, “COMPOUND AND RADIOACTIVE LABELING COMPOUND” (NIHON MEDI-PHYSICS CO., LTD., priority 2021, published 2024).

Columns and labels:
[1] = system: LNCaP tumor-transplanted mouse; assay: Internal radioactivity distribution using LNCaP tumor-transplanted mouse; type: in vivo
In short: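 Male SCID mice bearing subcutaneous LNCaP or PC-3 xenografts (40–60 days) received the 111In-labelled compound i.v. via tail vein (185–259 kBq in saline; n=2–3). Blood and organs collected at 1 to 192 hours post-dose, weighed and counted. Uptake expressed as %ID/g.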

[2] = system: PC-3 tumor-transplanted mouse; assay: Internal radioactivity distribution using PC-3 tumor-transplanted mouse; type: in vivo
Protocol: (§1) The animal test was performed in compliance with the guidelines of Kyoto University Animal Experiment Committee. Male CB17/IcrJcl-Prkdc^scid mice were purchased from CLEA Japan, Inc. The animals were kept under 12 h/12 h, day/night cycle conditions and fed ad libitum with food and water. LNCaP cells (1.0×10^7 cells/mouse) or PC-3 cells (1.0×10^7 cells/mouse) were suspended in a mixture of PBS and Matrigel manufactured by Corning Life Sciences (1:1, 150 μL) and the suspension was subcutaneously transplanted to the right shoulder of mice under isoflurane anesthesia. Thereafter, the mice were kept for 40 to 60 days.
LNCaP or PC-3 tumor-implanted mice were administered saline solutions (185 kBq, 100 μL) of [^111In]In-PSMA-DA1 or [^111In]In-PSMA-DB from the tail vein (n=3 each). Mice were euthanized 1, 4, 24, 48, 96, and 192 hours after administration. Thereafter, blood and each organ were recovered, and the mass and radioactivity of the organs were measured.
The percentage (% ID) of the radioactivity amount to the administered radioactivity amount (injected dose) is shown as the value (% ID/g) divided by the blood mass or the organ mass (g).
as §1, with “LNCaP cells (4.3×10^6 cells/mouse) or” for “LNCaP cells (1.0×10^7 cells/mouse) or”, “PC-3 cells (3.3×10^6 cells/mouse) were” for “PC-3 cells (1.0×10^7 cells/mouse) were”, “shoulder of CB17/IcrJcl-Prkdc^scid mice under” for “shoulder of mice under”
Mice were euthanized 1, 4, 24, 48, 96, and 192 hours after administration. Thereafter, blood and each organ were recovered, and the mass and radioactivity of the organs were measured.
The results are shown in Table 13 (Mean value±standard deviation, n=3).

[3] = 1 h after administration, PC-3 tumor-transplanted mice

`O=C([O-])CN1CCN(C(CCC(=O)NCCCC[C@H](NC(=O)N[C@@H](CCC(=O)O)C(=O)O)C(=O)O)C(=O)[O-])CCN(CC(=O)[O-])CCN(C(CCC(=O)Nc2ccccc2)C(=O)[O-])CC1.[111In+3]` (stereo partly drawn) [[^111In]In-PSMA-DB, reference compound] was tested, and the Blood ([1]; 1 h after administration) was 3.33 ± 0.21 % ID/g, the Brain ([1]; 1 h after administration) was 0.06 ± 0.01 % ID/g and the Heart ([1]; 1 h after administration) was 0.87 ± 0.33 % ID/g. For the same compound, the Intestine ([1]; 1 h after administration) was 0.59 ± 0.14 % ID/g, the Kidney ([1]; 1 h after administration) was 59.2 ± 35.2 % ID/g and the “LNCaP Tumor” value ([1]; 1 h after administration) was 3.36 ± 0.04 % ID/g. For the same compound, the Liver ([1]; 1 h after administration) was 0.91 ± 0.20 % ID/g, the Lung ([1]; 1 h after administration) was 2.24 ± 0.60 % ID/g and the Muscle ([1]; 1 h after administration) was 0.23 ± 0.68 % ID/g. The Pancreas ([1]; 1 h after administration) was 0.74 ± 0.25 % ID/g, the Spleen ([1]; 1 h after administration) was 3.05 ± 0.53 % ID/g and the “Stomach (% ID)” value ([1]; 1 h after administration) was 0.10 ± 0.04 % ID. It also gave a Blood ([1]; 4 h after administration) of 2.00 ± 0.29 % ID/g, a Brain ([1]; 4 h after administration) of 0.05 ± 0.00 % ID/g and a Heart ([1]; 4 h after administration) of 0.60 ± 0.08 % ID/g. The Intestine ([1]; 4 h after administration) was 1.05 ± 0.10 % ID/g, the Kidney ([1]; 4 h after administration) was 22.7 ± 9.69 % ID/g and the “LNCaP Tumor” value ([1]; 4 h after administration) was 2.50 ± 0.50 % ID/g. The Liver ([1]; 4 h after administration) was 0.95 ± 0.05 % ID/g, the Lung ([1]; 4 h after administration) was 1.56 ± 0.07 % ID/g and the Muscle ([1]; 4 h after administration) was 0.21 ± 0.04 % ID/g. The Pancreas ([1]; 4 h after administration) was 0.54 ± 0.22 % ID/g, the Spleen ([1]; 4 h after administration) was 2.39 ± 0.05 % ID/g and the “Stomach (% ID)” value ([1]; 4 h after administration) was 0.13 ± 0.03 % ID. It also gave a Blood ([1]; 24 h after administration) of 0.68 ± 0.17 % ID/g, a Brain ([1]; 24 h after administration) of 0.07 ± 0.02 % ID/g and a Heart ([1]; 24 h after administration) of 0.43 ± 0.07 % ID/g. The Intestine ([1]; 24 h after administration) was 1.00 ± 0.44 % ID/g, the Kidney ([1]; 24 h after administration) was 13.2 ± 2.41 % ID/g and the “LNCaP Tumor” value ([1]; 24 h after administration) was 2.09 ± 0.39 % ID/g. It also gave a Liver ([1]; 24 h after administration) of 1.55 ± 0.32 % ID/g, a Lung ([1]; 24 h after administration) of 0.97 ± 0.15 % ID/g and a Muscle ([1]; 24 h after administration) of 0.21 ± 0.07 % ID/g. The Pancreas ([1]; 24 h after administration) was 0.71 ± 0.10 % ID/g, the Spleen ([1]; 24 h after administration) was 3.37 ± 0.75 % ID/g and the “Stomach (% ID)” value ([1]; 24 h after administration) was 0.16 ± 0.05 % ID. It also gave a Blood ([1]; 48 h after administration) of 0.27 ± 0.16 % ID/g, a Brain ([1]; 48 h after administration) of 0.03 ± 0.02 % ID/g and a Heart ([1]; 48 h after administration) of 0.32 ± 0.05 % ID/g. For the same compound, the Intestine ([1]; 48 h after administration) was 0.79 ± 0.21 % ID/g, the Kidney ([1]; 48 h after administration) was 8.58 ± 2.02 % ID/g and the “LNCaP Tumor” value ([1]; 48 h after administration) was 1.69 ± 0.77 % ID/g. It also gave a Liver ([1]; 48 h after administration) of 1.28 ± 0.16 % ID/g, a Lung ([1]; 48 h after administration) of 0.66 ± 0.24 % ID/g and a Muscle ([1]; 48 h after administration) of 0.15 ± 0.06 % ID/g. For the same compound, the Pancreas ([1]; 48 h after administration) was 0.71 ± 0.17 % ID/g, the Spleen ([1]; 48 h after administration) was 2.63 ± 0.83 % ID/g and the “Stomach (% ID)” value ([1]; 48 h after administration) was 0.07 ± 0.02 % ID. It also gave a Blood ([1]; 96 h after administration) of 0.14 ± 0.04 % ID/g, a Brain ([1]; 96 h after administration) of 0.09 ± 0.05 % ID/g and a Heart ([1]; 96 h after administration) of 0.40 ± 0.12 % ID/g. For the same compound, the Intestine ([1]; 96 h after administration) was 0.41 ± 0.17 % ID/g, the Kidney ([1]; 96 h after administration) was 7.04 ± 3.28 % ID/g and the “LNCaP Tumor” value ([1]; 96 h after administration) was 1.05 ± 0.03 % ID/g. It also gave a Liver ([1]; 96 h after administration) of 1.59 ± 0.57 % ID/g, a Lung ([1]; 96 h after administration) of 0.70 ± 0.15 % ID/g and a Muscle ([1]; 96 h after administration) of 0.14 ± 0.08 % ID/g. The Pancreas ([1]; 96 h after administration) was 0.85 ± 0.39 % ID/g, the Spleen ([1]; 96 h after administration) was 2.82 ± 0.87 % ID/g and the “Stomach (% ID)” value ([1]; 96 h after administration) was 0.10 ± 0.03 % ID. The Blood ([1]; 192 h after administration) was 0.07 ± 0.03 % ID/g, the Brain ([1]; 192 h after administration) was 0.04 ± 0.00 % ID/g and the Heart ([1]; 192 h after administration) was 0.33 ± 0.01 % ID/g. The Intestine ([1]; 192 h after administration) was 0.13 ± 0.02 % ID/g, the Kidney ([1]; 192 h after administration) was 3.47 ± 1.24 % ID/g and the “LNCaP Tumor” value ([1]; 192 h after administration) was 0.83 ± 0.11 % ID/g. For the same compound, the Liver ([1]; 192 h after administration) was 1.20 ± 0.09 % ID/g, the Lung ([1]; 192 h after administration) was 0.67 ± 0.05 % ID/g and the Muscle ([1]; 192 h after administration) was 0.14 ± 0.09 % ID/g. For the same compound, the Pancreas ([1]; 192 h after administration) was 1.04 ± 0.18 % ID/g, the Spleen ([1]; 192 h after administration) was 3.46 ± 0.32 % ID/g and the “Stomach (% ID)” value ([1]; 192 h after administration) was 0.05 ± 0.00 % ID. The “retention in blood / accumulation at the LNCaP tumor against the comparator (in words)” value ([1]; any time point) was “less accumulated”, the “tumor/kidney ratio compared with [^111In]In-PSMA-DA1 (in words)” value ([1]; mouse, in vivo) was “lower” and the Blood [2, 3] was 1.92 ± 0.27 % ID/g. The Brain [2, 3] was 0.06 ± 0.00 % ID/g, the Heart [2, 3] was 0.49 ± 0.05 % ID/g and the Intestine [2, 3] was 0.48 ± 0.04 % ID/g. It also gave a Kidney [2, 3] of 49.5 ± 12.6 % ID/g, a Liver [2, 3] of 0.62 ± 0.03 % ID/g and a Lung [2, 3] of 1.36 ± 0.23 % ID/g. For the same compound, the Muscle [2, 3] was 0.21 ± 0.08 % ID/g, the “PC-3 Tumor” value [2, 3] was 0.61 ± 0.06 % ID/g and the Pancreas [2, 3] was 0.44 ± 0.06 % ID/g. The Spleen [2, 3] was 2.57 ± 0.39 % ID/g, the “Stomach (% ID)” value [2, 3] was 0.12 ± 0.04 % ID and the “accumulation at the PC-3 tumor compared with the LNCaP tumor at the same time point (in words)” value ([2]; mouse, in vivo) was “less accumulated”.
